According to US20230279053A1 (priority 2020, published 2023):

Legend:
Mouse GLP-1R = target: T1, Mouse GLP-1R (Mus musculus, UniProt O35659); test: Functional antagonism of mouse GLP1 receptors, cAMP accumulation assay; assay type: cell-based; details: CHO-K1 cells stably expressing mouse GLP-1R; stimulated with EC80 of Exendin-4; HitHunter cAMP assay; IC50 corrected by Cheng-Prusoff adaptation
T1 construct: expressed in transfected cells
T1 sequence (O35659 22-463): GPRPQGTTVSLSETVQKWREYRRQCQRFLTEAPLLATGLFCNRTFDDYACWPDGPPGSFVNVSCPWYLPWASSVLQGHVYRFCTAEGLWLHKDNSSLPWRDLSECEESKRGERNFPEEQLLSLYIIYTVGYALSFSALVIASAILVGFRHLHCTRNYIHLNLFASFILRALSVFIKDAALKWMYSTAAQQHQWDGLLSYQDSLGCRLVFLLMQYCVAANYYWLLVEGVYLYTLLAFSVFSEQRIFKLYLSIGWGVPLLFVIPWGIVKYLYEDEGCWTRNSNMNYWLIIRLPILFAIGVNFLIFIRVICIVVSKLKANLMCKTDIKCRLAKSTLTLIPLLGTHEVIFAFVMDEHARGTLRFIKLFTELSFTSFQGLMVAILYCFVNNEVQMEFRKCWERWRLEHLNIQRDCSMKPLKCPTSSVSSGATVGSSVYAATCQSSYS
Method: Antagonist inhibition of cAMP production upon stimulation of GLP-1R with agonist ligand was assessed using HitHunter cAMP assay (DiscoverX). The method followed antagonist procedure steps provided in the kit. In brief, CHO-K1 cells stably expressing mouse GLP-1R were thawed and plated at 10K cells per well in CP05 reagent in the total volume of 20 μl into white walled, 384-well plates and incubated overnight at 37° C. in Cytomat. On the day of the assay, the media was replaced with 15 μl of HBSS/10 mM HEPES. DMSO stock of test compounds were serially diluted in DMSO and then further diluted in the HBSS/10 mM HEPES, 5 μl of each concentration were added to the plate followed by 30 min incubation at 37° C. Final DMSO concentration in the assay was 1%. Cells were stimulated for further 30 min at 37° C. by addition of an equivalent to EC80 concentration of Exendin-4. Intracellular accumulation of cAMP was stopped by addition of the HitHunter detection reagents in lysis buffer, provided in the kit. Following 1-hour incubation at RT in the dark, plates were read on Envision (Perkin Elmer). Dotmatics Studies software was used for fitting data to a four-parameter concentration response curve. Calculated IC50 values were corrected for the agonist concentration using an adaptation of the Cheng-Prusoff equation to generate functional pKb values: […]

Human GLP-1R = target: T2, Human GLP-1R (Homo sapiens, UniProt P43220); test: Functional antagonism of human GLP1 receptors, cAMP accumulation assay; assay type: cell-based; details: HEK cells infected with GLP-1R Bacmam; stimulated with EC80 of GLP-1(7-36) amide; HiRange cAMP kit; IC50 corrected by Cheng-Prusoff adaptation
T2 construct: expressed in transfected cells; host or cells: HEK cells, BacMam transduction
Method: The method followed a two-step protocol provided in the kit. In brief, HEK cells infected with 1% v/v GLP-1R Bacmam for 24 h were harvested using cell dissociation solution (Gibco), centrifuged and resuspended in the assay buffer (HBSS (Lonza) supplemented with 0.5 mM IBMX (Tocris)). DMSO stock of test compounds were serially diluted in the assay buffer and added to 96-well half area white plates (Costar). Final DMSO concentration in the assay was 0.3%. 20K cells per well were added to plates followed by 30 min incubation (humidified air (5% CO2), 37° C.). […] Intracellular accumulation of cAMP was stopped by addition of the HTRF detection reagents in lysis buffer, provided in the kit. Following 1-hour incubation at RT, plates were read on Pherastar FS (BMG Labtech, Inc.) Dotmatics Studies software was used for fitting data to a four-parameter concentration response curve. Calculated IC50 values were corrected for the agonist concentration using an adaptation of the Cheng-Prusoff equation to generate functional pKb values: […]

T2 sequence (P43220 24-463): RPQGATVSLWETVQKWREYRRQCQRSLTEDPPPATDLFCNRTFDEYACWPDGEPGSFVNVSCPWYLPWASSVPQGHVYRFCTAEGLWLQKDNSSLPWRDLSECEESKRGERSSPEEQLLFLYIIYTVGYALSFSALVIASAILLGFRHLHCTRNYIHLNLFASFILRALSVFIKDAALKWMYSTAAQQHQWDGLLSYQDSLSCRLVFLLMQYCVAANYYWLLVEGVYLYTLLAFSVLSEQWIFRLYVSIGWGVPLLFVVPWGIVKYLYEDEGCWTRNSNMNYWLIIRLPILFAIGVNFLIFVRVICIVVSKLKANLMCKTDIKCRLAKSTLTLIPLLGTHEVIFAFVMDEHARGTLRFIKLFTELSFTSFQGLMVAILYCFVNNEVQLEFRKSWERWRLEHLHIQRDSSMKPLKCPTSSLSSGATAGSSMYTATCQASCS

exendin(9-39)amide [Ex 9-39]
Mouse GLP-1R antagonist cAMP fpKb (Mouse GLP-1R): 7.2 | Human GLP-1R antagonist cAMP fpKb (Human GLP-1R): 7.8
